This note sets out measurements from patent US12325744B2, “Methods for reducing post-operative cognitive dysfunction (POCD)” (The Kennedy Trust for Rheumatology Research, priority 2010, dated 2025).

This test deals with IL-1β. The experiment in a line: Plasma (systemic) IL-1β by ELISA after tibial surgery. The note with it: wild type mice, minocycline 40 mg/kg i.p., enrofloxacin 10 mg/kg or IL-1Ra 100 mg/kg given prior to surgery, vs surgery alone. Type of test: in vivo. From the text: Mice were subjected to an open tibial fracture of the left hind paw with intramedullary fixation in aseptic conditions under general anaesthesia with isoflurane and analgesia with buprenorphineas previously described^18. Other groups of animals were not subjected to any intervention (naïve), or received anesthetic/analgesia alone, or underwent surgery with concurrent administration of minocycline, enrofloxacin, or IL-1 receptor antagonist (IL-1Ra). (For further details please refer to supplemental methods).
IL-6, TNF-α and IL-1β were measured by ELISA^19 (Biosource, CA; Bender Medsystem, CA, respectively). Hippocampal IL-1β was measured by ELISA (Bender Medsystem, CA), as previously described^20. To confirm reliability of dilution linearity and spike recovery cytokine measurement were also performed in mice in which inflammation was induced with i.p. LPS (0111:B4, Invivogen, CA). (For further details please refer to supplemental methods).
Mice were randomly assigned to the following groups: surgery under general anesthesia (S), surgery under general anesthesia plus minocycline (M), surgery under general anesthesia plus enrofloxacin (E), surgery under general anesthesia plus interleukin-1 receptor antagonist (IL-1Ra) (I), surgery in IL1R^−/− mice under general anesthesia (K), general anesthesia without surgery (A), and no intervention (naïve wild-type, or naïve IL1R^−/−). Under aseptic conditions, groups of mice were subjected to an open tibial fracture of the left hind paw with an intramedullary fixation as previously described^2. Briefly, isoflurane (Abbot Laboratories Ltd., Queensborough, Kent, UK) 2.1% in air (1.5 MAC)^3 and buprenorphine (Reckitt Benckiser Healthcare Ltd, Hull, UK) 0.1 mg/kg subcutaneously (sc), were given to provide both surgical anesthesia and extended post-operative analgesia for the surgical intervention and post-surgical recovery. After shaving the overlying skin and disinfecting with chlorhexidine gluconate 0.5% and isopropyl alcohol 70% (PDI, Orangeburg, NY, USA) a fracture of the tibial shaft was created under direct vision. […]

SMILES strings stand for the structures.

With `CCN1CCN(c2cc3c(cc2F)c(=O)c(C(=O)O)cn3C2CC2)CC1` [enrofloxacin, reference compound], the “Plasma IL-1β after surgery, effect of treatment” value was “exerted no effect on IL-1β plasma concentration”. Besides, the “Plasma IL-1β after surgery, effect of treatment” value (listed as Enrofloxacin) is “failed to reduce plasma levels of IL-1β”.
